Laboratory results from ChEMBL document CHEMBL1141687, “Design, syntheses, and structure-activity relationships of novel NPY Y5 receptor antagonists: 2-{3-Oxospiro[isobenzofuran-1(3H),4'-piperidin]-1'-yl}benzimidazole derivatives” (Bioorg Med Chem Lett, 2008).
The source made the active and inactive calls. The calls are words filed in the database; no cut-off is given here.

What was measured:
[1] = target: T1, Neuropeptide Y receptor type 5 (Homo sapiens, UniProt Q15761); assay: Binding affinity to human NPY Y5 receptor transfected in mouse LMtk cells; format: cell-based
T1 sequence (Q15761 whole entry): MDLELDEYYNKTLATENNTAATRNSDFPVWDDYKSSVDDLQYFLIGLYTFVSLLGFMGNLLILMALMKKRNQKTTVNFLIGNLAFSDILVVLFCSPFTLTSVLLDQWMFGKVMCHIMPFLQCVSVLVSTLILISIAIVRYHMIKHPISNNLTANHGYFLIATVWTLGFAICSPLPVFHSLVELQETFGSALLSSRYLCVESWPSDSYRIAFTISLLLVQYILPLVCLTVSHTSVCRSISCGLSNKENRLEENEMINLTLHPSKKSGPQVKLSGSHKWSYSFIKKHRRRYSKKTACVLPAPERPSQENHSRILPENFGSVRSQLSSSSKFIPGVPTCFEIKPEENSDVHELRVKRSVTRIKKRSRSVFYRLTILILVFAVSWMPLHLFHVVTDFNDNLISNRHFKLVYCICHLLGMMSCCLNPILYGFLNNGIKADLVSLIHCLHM

[2] = target: T2, Neuropeptide Y receptor type 2 (Homo sapiens, UniProt P49146); assay: Binding affinity to NPY Y2 receptor
T2 sequence (P49146 whole entry): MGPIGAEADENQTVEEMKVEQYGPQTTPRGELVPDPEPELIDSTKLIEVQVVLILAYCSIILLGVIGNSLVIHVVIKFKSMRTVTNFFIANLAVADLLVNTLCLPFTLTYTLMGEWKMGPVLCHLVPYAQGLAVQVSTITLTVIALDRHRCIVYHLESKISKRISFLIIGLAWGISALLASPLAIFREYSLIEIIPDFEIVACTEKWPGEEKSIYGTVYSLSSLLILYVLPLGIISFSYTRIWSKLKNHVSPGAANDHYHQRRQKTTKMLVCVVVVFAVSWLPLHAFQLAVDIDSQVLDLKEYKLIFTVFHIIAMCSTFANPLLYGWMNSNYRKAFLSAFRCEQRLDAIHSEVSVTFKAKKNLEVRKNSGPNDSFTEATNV

Rattus norvegicus [3] = assay: Plasma concentration in rat at 10 mg/kg, po after 2 hrs; format: ADME, organism-based; parameters: dose 10 mg/kg, route oral
Rattus norvegicus [4] = assay: Plasma concentration in rat at 10 mg/kg, po after 4 hrs; format: ADME, organism-based; parameters: dose 10 mg/kg, route oral
[5] = target: Neuropeptide Y receptor type 4 (Homo sapiens, UniProt P50391); assay: Binding affinity to NPY Y4 receptor
Chain of Neuropeptide Y receptor type 4 (P50391 whole entry): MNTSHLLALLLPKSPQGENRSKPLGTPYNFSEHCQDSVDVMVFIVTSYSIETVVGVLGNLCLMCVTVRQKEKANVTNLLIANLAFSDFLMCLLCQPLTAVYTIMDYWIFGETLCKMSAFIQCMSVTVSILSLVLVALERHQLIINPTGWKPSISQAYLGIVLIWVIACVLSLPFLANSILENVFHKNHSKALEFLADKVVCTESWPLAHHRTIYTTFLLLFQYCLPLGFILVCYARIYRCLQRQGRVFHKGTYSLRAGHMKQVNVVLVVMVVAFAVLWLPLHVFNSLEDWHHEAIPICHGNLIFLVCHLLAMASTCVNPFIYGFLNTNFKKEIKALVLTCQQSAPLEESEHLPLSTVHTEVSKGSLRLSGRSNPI

[6] = target: T3, Neuropeptide Y receptor type 1 (Homo sapiens, UniProt P25929); assay: Binding affinity to NPY Y1 receptor
T3 sequence (P25929 whole entry): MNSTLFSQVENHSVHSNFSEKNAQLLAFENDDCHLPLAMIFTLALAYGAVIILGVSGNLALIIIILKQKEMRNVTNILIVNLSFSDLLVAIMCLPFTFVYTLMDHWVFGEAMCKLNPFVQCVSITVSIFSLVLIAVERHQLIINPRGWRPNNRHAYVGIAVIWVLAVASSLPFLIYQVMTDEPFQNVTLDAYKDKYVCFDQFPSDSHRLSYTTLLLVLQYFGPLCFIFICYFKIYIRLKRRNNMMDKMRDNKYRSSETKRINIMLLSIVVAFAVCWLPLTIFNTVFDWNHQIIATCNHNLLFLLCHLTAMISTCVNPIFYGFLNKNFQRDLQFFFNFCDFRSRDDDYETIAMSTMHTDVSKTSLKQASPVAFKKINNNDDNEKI

[7] = target: T1, Neuropeptide Y receptor type 5; assay: Antagonist activity at human NPY Y5 receptor transfected in mouse LMtk cells assessed as inhibition of neuropeptide Y-induced increase in […] Ca2+ level; format: functional, cell-based
in vivo = conditions: rat, brain and plasma, po, 10 mg/kg
Description: Ratio of drug level in brain to plasma in rat at 10 mg/kg, po after 2 hrs

Rattus norvegicus [8] = assay: Suppression of intracerebroventricular injected D-trp34NPY-induced food intake in SD rat at 10 mg/kg, po administered 2 hrs prior to ICV injection measured after 2 hrs of D-trp34NPY challenge; format: functional, organism-based; parameters: dose 10 mg/kg

Structure (SMILES) | IC50 [1] | other results
O=C1OC2(CCN(c3nc4ccccc4s3)CC2)c2ccccc21 | > 10 µM | 
NC(=O)c1ccc2nc(N3CCC4(CC3)OC(=O)c3ccccc34)[nH]c2c1 | 0.11 µM | 
CCOC(=O)c1ccc2nc(N3CCC4(CC3)OC(=O)c3ccccc34)[nH]c2c1 | 0.002 µM | 
COc1ccc2[nH]c(N3CCC4(CC3)OC(=O)c3ccccc34)nc2c1 | 0.037 µM | 
O=C1O[C@]2(CC[C@H](c3nc4ncccc4[nH]3)CC2)c2ccccc21 | 0.091 µM | 
CNC(=O)c1ccc2nc(N3CCC4(CC3)OC(=O)c3ccccc34)[nH]c2c1 | 0.02 µM | 
CS(=O)(=O)c1ccc2[nH]c(N3CCC4(CC3)OC(=O)c3ccccc34)nc2c1 | 0.085 µM | 
O=C1OC2(CCN(c3nc4cc(Cl)c(Cl)cc4[nH]3)CC2)c2ccccc21 | 0.0016 µM | IC50 [2]: > 10 µM; Concentration (Rattus norvegicus [3]): 2.9 µM; plasma concentration (Rattus norvegicus [4]): 4.6 µM; IC50 [5]: > 10 µM; IC50 [6]: > 10 µM; IC50 [7]: 0.0014 µM
O=C1O[C@]2(CC[C@@H](c3nc4cccnc4[nH]3)CC2)c2ccccc21 | 1.4 µM | 
O=C1OC2(CCN(c3nc4cc(Cl)ccc4[nH]3)CC2)c2ccccc21 | 0.0066 µM | IC50 [2]: > 10 µM; Concentration (Rattus norvegicus [3]): 27.8 µM; plasma concentration (Rattus norvegicus [4]): 25.6 µM; IC50 [5]: > 10 µM; IC50 [6]: > 10 µM; IC50 [7]: 0.0012 µM
COC(=O)c1ccc2[nH]c(N3CCC4(CC3)OC(=O)c3ccccc34)nc2c1 | 0.0027 µM | IC50 [2]: > 10 µM; Concentration (Rattus norvegicus [3]): 3.2 µM; plasma concentration (Rattus norvegicus [4]): 0.1 µM; IC50 [5]: > 10 µM; Kp at 2 h (in vivo): 0.08; IC50 [6]: > 10 µM; IC50 [7]: 0.0015 µM
O=C(O)c1ccc2[nH]c(N3CCC4(CC3)OC(=O)c3ccccc34)nc2c1 | > 1 µM | 
CS(=O)(=O)N1CC2(CCN(c3nc4ccccc4[nH]3)CC2)c2ccccc21 | > 1 µM | 
O=C1OC2(CCN(c3nc4cc5c(cc4[nH]3)OCO5)CC2)c2ccccc21 | 0.0093 µM | 
O=C1OC2(CCN(c3nc4cccc(C(F)(F)F)c4[nH]3)CC2)c2ccccc21 | 0.083 µM | 
N#Cc1ccc2[nH]c(N3CCC4(CC3)OC(=O)c3ccccc34)nc2c1 | 0.019 µM | 
CC(C)Cc1ccc2nc(N3CCC4(CC3)OC(=O)c3ccccc34)[nH]c2c1 | 0.0018 µM | 
O=C1OC2(CCN(c3nc4cc(C(F)(F)F)ccc4[nH]3)CC2)c2ccccc21 | 0.0035 µM | IC50 [2]: > 10 µM; Concentration (Rattus norvegicus [3]): 15.3 µM; plasma concentration (Rattus norvegicus [4]): 17.5 µM; Activity (Rattus norvegicus [8]): Active; IC50 [5]: > 10 µM; Kp at 2 h (in vivo): 0.31; IC50 [6]: > 10 µM; IC50 [7]: 0.0064 µM
O=C1OC2(CCN(c3nc4ccccc4[nH]3)CC2)c2ccccc21 | 0.14 µM | 
O=C1OC2(CCN(c3nc4cc(F)ccc4[nH]3)CC2)c2ccccc21 | 0.028 µM | 

Structure (SMILES) | IC50 [1] | other results
O=C1OC2(CCN(c3nc4c(F)cccc4[nH]3)CC2)c2ccccc21 | 0.5 µM | 
Cc1cccc2[nH]c(N3CCC4(CC3)OC(=O)c3ccccc34)nc12 | 0.074 µM | 
O=C1OC2(CCN(Cc3nc4ccccc4[nH]3)CC2)c2ccccc21 | 4.9 µM | 
COc1cccc2[nH]c(N3CCC4(CC3)OC(=O)c3ccccc34)nc12 | 0.25 µM | 
O=C1OC2(CCN(c3nc4ccc([N+](=O)[O-])cc4[nH]3)CC2)c2ccccc21 | 0.01 µM | 
CN(C)C(=O)c1ccc2nc(N3CCC4(CC3)OC(=O)c3ccccc34)[nH]c2c1 | 0.058 µM | 
CC(=O)Nc1ccc2nc(N3CCC4(CC3)OC(=O)c3ccccc34)[nH]c2c1 | 0.13 µM | 
O=C1OC2(CCN(c3nc4c(-c5ccccc5)cccc4[nH]3)CC2)c2ccccc21 | 0.017 µM | 
O=C1OC2(CCN(c3nc4ccc(Br)cc4[nH]3)CC2)c2ccccc21 | 0.01 µM | 
O=C1OC2(CCN(c3nc4cccnc4[nH]3)CC2)c2ccccc21 | 1.6 µM | 
O=C1OC2(CCN(c3nc4cccc(Cl)c4[nH]3)CC2)c2ccccc21 | 0.051 µM | 
Cc1cc2nc(N3CCC4(CC3)OC(=O)c3ccccc34)[nH]c2cc1C | 0.0092 µM | 
Cc1ccc2[nH]c(N3CCC4(CC3)OC(=O)c3ccccc34)nc2c1 | 0.036 µM | 
CS(=O)(=O)Nc1ccc2nc(N3CCC4(CC3)OC(=O)c3ccccc34)[nH]c2c1 | 0.056 µM | 
O=C1OC2(CCN(c3nc4cc(F)c(F)cc4[nH]3)CC2)c2ccccc21 | 0.0048 µM | 
O=C1OC2(CCN(c3nc4cc(-c5ccccc5)ccc4[nH]3)CC2)c2ccccc21 | 0.0024 µM | IC50 [2]: > 10 µM; Concentration (Rattus norvegicus [3]): 1.8 µM; plasma concentration (Rattus norvegicus [4]): 1.3 µM; IC50 [5]: > 10 µM; Kp at 2 h (in vivo): 0.35; IC50 [6]: > 10 µM; IC50 [7]: 0.0018 µM
O=C1OC2(CCN(c3nc4cc(Cl)c(F)cc4[nH]3)CC2)c2ccccc21 | 0.0067 µM | 
O=C1OC2(CCN(c3nc4cc5c(cc4[nH]3)OC(F)(F)O5)CC2)c2ccccc21 | 0.0022 µM | 
O=C1OC2(CCN(c3nc4cc(Cl)cc(Cl)c4[nH]3)CC2)c2ccccc21 | 0.0057 µM | 
